Experiments:
recombinant perforin = biological target: T1, recombinant perforin (Mus musculus, UniProt P10820); assay: Inhibition of perforin-mediated lysis of Jurkat cells (51Cr release); type: cell-based; conditions: recombinant perforin pre-incubated with compound 30 min; 51Cr-labelled Jurkat cells, 0.1% BSA, 4 h
T1 sequence (P10820 21-554): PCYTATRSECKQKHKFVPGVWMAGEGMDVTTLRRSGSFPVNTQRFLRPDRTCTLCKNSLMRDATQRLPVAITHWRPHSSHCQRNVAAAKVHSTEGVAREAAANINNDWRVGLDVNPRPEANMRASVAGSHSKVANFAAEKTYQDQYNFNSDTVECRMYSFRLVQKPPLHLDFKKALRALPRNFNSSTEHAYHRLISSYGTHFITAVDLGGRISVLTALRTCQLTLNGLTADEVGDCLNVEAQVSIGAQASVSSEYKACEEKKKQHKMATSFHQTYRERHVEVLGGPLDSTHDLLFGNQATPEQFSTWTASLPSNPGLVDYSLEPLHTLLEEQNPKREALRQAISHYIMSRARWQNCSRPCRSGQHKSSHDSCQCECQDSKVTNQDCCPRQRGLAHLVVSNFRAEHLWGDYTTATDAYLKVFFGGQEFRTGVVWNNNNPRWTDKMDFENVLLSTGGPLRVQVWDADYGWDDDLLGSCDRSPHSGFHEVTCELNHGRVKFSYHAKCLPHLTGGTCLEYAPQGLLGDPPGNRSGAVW
Excerpt: The supernatant was collected and assessed for its radioactive content on a gamma counter (Wallac Wizard 1470 automatic gamma counter).

[1] = Toxicity to KHYG1 NK cells (Trypan blue exclusion); type: cell-based, human; conditions: human, viability of KHYG1 NK cells after 24 h, n = 3
Procedure: The toxicity assay was carried out in exactly the same manner as the killing assay above, but instead of adding the labelled K562 target cells, 100 μL of RPMI 0.1% BSA was added. Cells were incubated for 4 h at 37 °C and then washed ×3 in RPMI + 0.1% BSA. […] Trypan blue was added to each well. Viable (clear) cells and total (clear + blue) cells were counted, and the percentage of viable cells was calculated compared to DMSO treated cell control (% viability).

[2] = biological target: T2, perforin delivered by KHYG1 NK cells (Homo sapiens, UniProt P14222); assay: KHYG1 inhibitory assay: lysis of 51Cr-labelled K562 target cells by KHYG1 NK cells; type: cell-based; conditions: 51Cr-labelled K562 target cells co-incubated with KHYG1 human NK cells, vs untreated control; for inhibition at 10 µM: n = 4
T2 construct: The use of whole NK cells to deliver perforin provides a more realistic model of conditions in vivo; endogenous in cells; host or cells: KHYG1 human NK cells (effector); K562 leukemia target cells
T2 sequence (P14222 22-555): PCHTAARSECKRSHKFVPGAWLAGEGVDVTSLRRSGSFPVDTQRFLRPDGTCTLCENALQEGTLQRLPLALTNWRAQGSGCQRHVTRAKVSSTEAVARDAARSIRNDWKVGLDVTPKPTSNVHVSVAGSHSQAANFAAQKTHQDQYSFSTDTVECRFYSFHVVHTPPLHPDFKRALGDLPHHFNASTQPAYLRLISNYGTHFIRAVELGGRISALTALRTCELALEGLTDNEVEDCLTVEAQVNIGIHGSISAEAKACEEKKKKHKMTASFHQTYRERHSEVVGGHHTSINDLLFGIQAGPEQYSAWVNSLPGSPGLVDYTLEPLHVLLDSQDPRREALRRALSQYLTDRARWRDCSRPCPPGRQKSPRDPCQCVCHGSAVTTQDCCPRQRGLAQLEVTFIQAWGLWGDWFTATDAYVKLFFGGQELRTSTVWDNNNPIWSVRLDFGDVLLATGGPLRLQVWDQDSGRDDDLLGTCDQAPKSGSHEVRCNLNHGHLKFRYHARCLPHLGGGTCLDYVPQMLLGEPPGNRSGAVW
Procedure: The inhibitory function is then determined by identifying the number of untreated or inhibitor treated effector cells required to kill the same number of targets.

Compound | Inhibition of Jurkat Cell Lysis IC50 (recombinant perforin) | melting point [°C] | viability at 24 h, 10 µM [1] [%] | inhibition at 10 µM [2] [%] | KHYG1 Inhibition (% at 10 μM) ([2]; n = 4, 10 µM) [%]
CN1Cc2cc(-c3ccc(-c4ccc(NS(=O)(=O)c5ccc(F)cc5F)nc4)s3)ccc2C1=O [Compound 4, 2,4-Difluoro-N-(5-(5-(2-methyl-1-oxoisoindolin-5-yl)thiophen-2-yl)pyridin-2-yl)benzenesulfonamide] | activity is abolished | 269 to 272 |  |  | 
CN1Cc2cc(-c3ccc(-c4cncc(NC(=O)c5ccc(F)cc5F)c4)s3)ccc2C1=O [Compound 8, 2,4-Difluoro-N-(5-(5-(2-methyl-1-oxoisoindolin-5-yl)thiophen-2-yl)pyridin-3-yl)benzamide] | complete loss of potency | 267 to 269 |  |  | 
CN1Cc2cc(-c3ccc(-c4cncc(NS(=O)(=O)c5cccc(C#N)c5)c4)s3)ccc2C1=O [Compound 49, 3-Cyano-N-(5-(5-(2-methyl-1-oxoisoindolin-5-yl)thiophen-2-yl)pyridin-3-yl)benzenesulfonamide] | poor activity | 282 to 285 | 94.4 ± 7.1 | 83.7 ± 3.2 | 
Cc1ccc(NS(=O)(=O)c2ccc(F)cc2F)cc1-c1ccc(-c2ccc3c(c2)CN(C)C3=O)s1 [Compound 13, 2,4-Difluoro-N-(4-methyl-3-(5-(2-methyl-1-oxoisoindolin-5-yl)thiophen-2-yl)phenyl)benzenesulfonamide] | complete loss of potency | 268 to 271 | 91.7 ± 10 | 50 | 50.3 ± 8.5
